Legend:
Assay type in all cases: biochemical
ces1e [1] = target: T1, ces1e (Rattus norvegicus, UniProt Q63108); assay: p-nitrophenylacetate hydrolysis, absorbance at […] nm; details: read-out: % inhibition at 10 nM
T1 sequence (Q63108 19-561): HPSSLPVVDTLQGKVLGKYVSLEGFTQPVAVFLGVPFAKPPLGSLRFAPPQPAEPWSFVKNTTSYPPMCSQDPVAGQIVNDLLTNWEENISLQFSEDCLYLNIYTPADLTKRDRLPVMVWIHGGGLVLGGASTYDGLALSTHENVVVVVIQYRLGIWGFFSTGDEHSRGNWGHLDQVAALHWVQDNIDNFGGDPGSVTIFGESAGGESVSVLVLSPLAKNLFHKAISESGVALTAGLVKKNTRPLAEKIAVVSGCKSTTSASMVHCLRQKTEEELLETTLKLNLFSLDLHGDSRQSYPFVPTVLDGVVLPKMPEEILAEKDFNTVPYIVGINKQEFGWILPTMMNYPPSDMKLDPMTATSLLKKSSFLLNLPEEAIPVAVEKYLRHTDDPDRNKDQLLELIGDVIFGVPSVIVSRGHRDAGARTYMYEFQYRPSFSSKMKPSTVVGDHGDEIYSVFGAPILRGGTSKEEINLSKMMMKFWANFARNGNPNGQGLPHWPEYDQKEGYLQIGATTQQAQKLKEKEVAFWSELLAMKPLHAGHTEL

ces1d [2] = target: T2, ces1d (Mus musculus, UniProt Q8VCT4); assay: as above; details: read-out: % inhibition at 1 nM
T2 sequence (Q8VCT4 19-565): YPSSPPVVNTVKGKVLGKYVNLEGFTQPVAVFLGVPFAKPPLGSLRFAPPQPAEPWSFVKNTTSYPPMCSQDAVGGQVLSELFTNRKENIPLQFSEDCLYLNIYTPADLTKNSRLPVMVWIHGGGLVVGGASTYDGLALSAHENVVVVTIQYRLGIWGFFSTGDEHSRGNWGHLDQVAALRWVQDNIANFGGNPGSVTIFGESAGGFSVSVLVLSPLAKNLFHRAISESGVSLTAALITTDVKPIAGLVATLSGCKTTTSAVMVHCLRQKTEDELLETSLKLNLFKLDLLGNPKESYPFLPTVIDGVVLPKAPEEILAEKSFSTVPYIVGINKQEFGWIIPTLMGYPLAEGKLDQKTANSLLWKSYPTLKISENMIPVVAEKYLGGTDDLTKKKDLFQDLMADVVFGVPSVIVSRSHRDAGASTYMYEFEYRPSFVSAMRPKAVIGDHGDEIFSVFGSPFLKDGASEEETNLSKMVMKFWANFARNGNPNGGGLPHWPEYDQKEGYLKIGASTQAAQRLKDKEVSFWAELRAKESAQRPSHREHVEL

ces2e [3] = target: T3, ces2e (Mus musculus, UniProt Q8BK48); assay: as above; details: read-out: % inhibition at 1 nM
T3 sequence (Q8BK48 27-559): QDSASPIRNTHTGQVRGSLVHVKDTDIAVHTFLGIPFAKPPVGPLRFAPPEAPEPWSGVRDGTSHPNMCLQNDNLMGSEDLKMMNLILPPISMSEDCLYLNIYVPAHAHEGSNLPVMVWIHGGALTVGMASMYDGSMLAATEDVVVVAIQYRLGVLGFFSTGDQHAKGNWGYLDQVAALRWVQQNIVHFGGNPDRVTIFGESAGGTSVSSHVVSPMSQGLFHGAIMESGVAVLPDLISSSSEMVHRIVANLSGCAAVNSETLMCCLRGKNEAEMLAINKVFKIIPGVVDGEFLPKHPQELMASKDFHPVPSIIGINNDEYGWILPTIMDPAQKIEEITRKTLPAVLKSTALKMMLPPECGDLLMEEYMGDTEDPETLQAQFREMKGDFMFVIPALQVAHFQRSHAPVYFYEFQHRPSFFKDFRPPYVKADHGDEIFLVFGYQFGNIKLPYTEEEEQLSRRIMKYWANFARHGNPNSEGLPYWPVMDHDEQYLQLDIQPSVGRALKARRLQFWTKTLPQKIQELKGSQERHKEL

ces1d [4] = target: T4, ces1d (Rattus norvegicus, UniProt P16303); assay: as above; details: read-out: % inhibition at 10 nM
T4 sequence (P16303 19-565): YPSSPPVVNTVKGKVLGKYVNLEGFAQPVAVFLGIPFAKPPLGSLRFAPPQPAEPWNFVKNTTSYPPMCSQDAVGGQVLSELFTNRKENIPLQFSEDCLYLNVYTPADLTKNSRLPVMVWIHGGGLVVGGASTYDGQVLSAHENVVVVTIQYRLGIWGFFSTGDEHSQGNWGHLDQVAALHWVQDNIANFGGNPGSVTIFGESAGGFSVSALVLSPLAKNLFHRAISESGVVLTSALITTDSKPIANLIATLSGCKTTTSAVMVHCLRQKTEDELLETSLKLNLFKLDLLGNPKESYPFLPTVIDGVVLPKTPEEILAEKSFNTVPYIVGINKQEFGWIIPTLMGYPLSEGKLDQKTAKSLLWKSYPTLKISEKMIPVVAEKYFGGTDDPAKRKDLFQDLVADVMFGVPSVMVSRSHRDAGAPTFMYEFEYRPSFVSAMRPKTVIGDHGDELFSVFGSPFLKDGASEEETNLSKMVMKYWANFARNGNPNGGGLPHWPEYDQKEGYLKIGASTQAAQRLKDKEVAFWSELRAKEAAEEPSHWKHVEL

CES1 [5] = target: T5, CES1 (Homo sapiens, UniProt P23141); assay: as above; details: read-out: % inhibition at 100 nM
T5 sequence (P23141 18-567): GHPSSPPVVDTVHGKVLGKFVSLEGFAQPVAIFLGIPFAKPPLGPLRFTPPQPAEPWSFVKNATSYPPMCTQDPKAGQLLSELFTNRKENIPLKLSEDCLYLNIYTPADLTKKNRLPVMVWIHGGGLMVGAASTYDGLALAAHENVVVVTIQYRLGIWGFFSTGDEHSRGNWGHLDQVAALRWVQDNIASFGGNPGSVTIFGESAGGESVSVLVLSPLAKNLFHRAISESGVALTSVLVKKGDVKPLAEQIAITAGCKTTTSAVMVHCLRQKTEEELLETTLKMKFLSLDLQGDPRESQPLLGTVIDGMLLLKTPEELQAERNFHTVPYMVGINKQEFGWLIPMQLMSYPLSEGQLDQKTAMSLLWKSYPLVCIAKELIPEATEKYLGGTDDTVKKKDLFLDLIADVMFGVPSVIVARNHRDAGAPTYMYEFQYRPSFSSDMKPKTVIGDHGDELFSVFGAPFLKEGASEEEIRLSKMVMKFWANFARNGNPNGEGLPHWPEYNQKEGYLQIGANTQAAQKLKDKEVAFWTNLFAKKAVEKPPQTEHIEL

ces2c [6] = target: T6, ces2c (Mus musculus, UniProt Q91WG0); assay: as above; details: read-out: % inhibition at 1 nM
T6 sequence (Q91WG0 27-561): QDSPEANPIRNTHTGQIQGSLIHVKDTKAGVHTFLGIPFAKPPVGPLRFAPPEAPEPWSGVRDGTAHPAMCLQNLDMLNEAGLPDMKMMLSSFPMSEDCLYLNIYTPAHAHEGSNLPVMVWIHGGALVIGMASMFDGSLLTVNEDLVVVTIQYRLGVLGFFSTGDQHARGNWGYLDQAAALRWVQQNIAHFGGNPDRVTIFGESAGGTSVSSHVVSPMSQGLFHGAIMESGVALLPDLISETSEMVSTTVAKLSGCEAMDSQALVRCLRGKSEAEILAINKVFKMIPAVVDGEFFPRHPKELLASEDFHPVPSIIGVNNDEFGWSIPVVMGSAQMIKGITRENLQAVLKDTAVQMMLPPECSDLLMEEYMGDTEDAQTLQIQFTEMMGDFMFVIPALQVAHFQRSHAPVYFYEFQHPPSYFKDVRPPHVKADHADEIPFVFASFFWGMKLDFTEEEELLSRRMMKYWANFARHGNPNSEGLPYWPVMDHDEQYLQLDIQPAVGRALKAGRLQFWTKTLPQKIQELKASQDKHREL

ces2c [7] = target: T6, ces2c; assay: hydrolysis, absorbance at […] nm; details: 293T lysate, potassium phosphate pH 7.4
ces1d [8] = target: T4, ces1d; assay: hydrolysis, absorbance at […] nm; details: 293T lysate, potassium phosphate pH 7.4
CES1 [9] = target: T5, CES1; assay: hydrolysis, absorbance at […] nm; details: 293T lysate, potassium phosphate pH 7.4
ces2e [10] = target: T3, ces2e; assay: hydrolysis, absorbance at […] nm; details: 293T lysate, potassium phosphate pH 7.4
ces1d [11] = target: T2, ces1d; assay: hydrolysis, absorbance at […] nm; details: 293T lysate, potassium phosphate pH 7.4
CES2 = target: T7, CES2 (Homo sapiens, UniProt O00748); assay: hydrolysis, absorbance at […] nm; details: 293T lysate, potassium phosphate pH 7.4
T7 sequence (O00748 27-559): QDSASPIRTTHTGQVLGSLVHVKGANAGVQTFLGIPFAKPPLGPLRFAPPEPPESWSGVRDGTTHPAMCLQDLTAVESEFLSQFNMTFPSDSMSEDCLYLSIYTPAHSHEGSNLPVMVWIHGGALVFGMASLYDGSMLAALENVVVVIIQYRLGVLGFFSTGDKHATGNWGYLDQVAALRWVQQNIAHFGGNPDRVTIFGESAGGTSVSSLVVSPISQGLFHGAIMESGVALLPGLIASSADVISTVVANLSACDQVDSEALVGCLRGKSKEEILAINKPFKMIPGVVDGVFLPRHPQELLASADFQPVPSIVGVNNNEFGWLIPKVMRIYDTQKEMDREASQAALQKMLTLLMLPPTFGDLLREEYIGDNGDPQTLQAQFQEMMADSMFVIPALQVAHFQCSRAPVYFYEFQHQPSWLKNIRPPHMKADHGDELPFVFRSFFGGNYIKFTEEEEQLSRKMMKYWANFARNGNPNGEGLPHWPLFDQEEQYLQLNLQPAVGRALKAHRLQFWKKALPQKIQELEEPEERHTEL

ces1e [12] = target: T1, ces1e; assay: hydrolysis, absorbance at […] nm; details: 293T lysate, potassium phosphate pH 7.4

SMILES | inhibition at 0.01 µM (ces1e [1]) | inhibition at 0.001 µM (ces1d [2]) | inhibition at 0.001 µM (ces2e [3]) | inhibition at 0.01 µM (ces1d [4]) | inhibition at 0.1 µM (CES1 [5]) | inhibition at 0.001 µM (ces2c [6]) | hydrolysis, absorbance at 400 nm (ces2c [7]) | hydrolysis, absorbance at 400 nm (ces1d [8]) | hydrolysis, absorbance at 400 nm (CES1 [9]) | hydrolysis, absorbance at 400 nm (ces2e [10]) | hydrolysis, absorbance at 400 nm (ces1d [11]) | hydrolysis, absorbance at 400 nm (CES2) | hydrolysis, absorbance at 400 nm (ces1e [12])
CCCCCCCCCCC[C@@H](C[C@@H]1OC(=O)[C@H]1CCCCCC)OC(=O)[C@H](CC(C)C)NC=O [orlistat] | 20% | 12% | 55% | 20% | ~30% | 90% | – | – | – | – | – | – | –
CC(=O)Oc1ccc([N+](=O)[O-])cc1 [p-nitrophenylacetate] | – | – | – | – | – | – | Inhibition of p-nitrophenylacetate hydrolysis of recombinant carboxylesterases from human (A), mouse (B) or rat | Inhibition of p-nitrophenylacetate hydrolysis of recombinant carboxylesterases from human (A), mouse (B) or rat | Inhibition of p-nitrophenylacetate hydrolysis of recombinant carboxylesterases from human (A), mouse (B) or rat | Inhibition of p-nitrophenylacetate hydrolysis of recombinant carboxylesterases from human (A), mouse (B) or rat | Inhibition of p-nitrophenylacetate hydrolysis of recombinant carboxylesterases from human (A), mouse (B) or rat | Inhibition of p-nitrophenylacetate hydrolysis of recombinant carboxylesterases from human (A), mouse (B) or rat | Inhibition of p-nitrophenylacetate hydrolysis of recombinant carboxylesterases from human (A), mouse (B) or rat

— PMC4102434 (Biochemical pharmacology, 2012)
